The nature of the first series: Mouse 6-hour PK study. The following applies: mouse, in vivo. The text has this:
Useful such assays include, but are not limited to e.g., those measurements made in PK studies, such as rodent and non-human primate PK studies, including e.g., mouse (such as mouse 6-hour PK studies), rat PK studies, cynomolgus or rhesus PK studies, or the like. Useful measurements obtained in such PK studies include but are not limited to e.g., maximum concentration (Cmax) reflecting the “peak” of a drug observed after its administration that can reflect not only the rate but also the extent of absorption, area under the curve (AUC) representing the area under the plot of tissue (e.g., plasma) concentration against time after drug administration which is of particular use in estimating bioavailability of drugs and drug total clearance, half-life (t1/2) or the period of time required for the concentration or amount of drug to be reduced to exactly one-half of a given concentration or amount that indicates the persistence of the drug in its volume of distribution, and the like.
Such assessments included human and mouse liver microsomal stability assays as well as 6-hour mouse PK studies.
Consider `Cc1cccc(C(C)C)c(O)c1=O` [Ex. 30, 2-hydroxy-3-isopropyl-7-methylcyclohepta-2,4,6-trien-1-one], for which the exposure AUC(0-t) (as a rule, the area under the concentration-time curve up to a stated or last time point) was below 499 ng·h/mL; the peak concentration (Cmax) – broadly, the highest concentration seen after dosing – was below 499 ng/mL; the half-life – broadly, the time needed for the level to fall by half in the phase considered – lay in the range of 5 to 9.99 h; the “mouse 6-hour PK properties as compared to hinokitiol” value was “one or more improved mouse 6-hour PK properties as compared to hinokitiol”.

Consider `O=c1ccccc(OCC2CC2)c1O` [Ex. 83, 3-(cyclopropylmethoxy)-2-hydroxycyclohepta-2,4,6-trien-1-one], for which the AUC(0-t) was in the range of 500 to 1500 ng·h/mL, the Cmax is 1500 to 5000 ng/mL, the half-life was below 1.25 h and the “mouse 6-hour PK properties as compared to hinokitiol” value is reported as “one or more improved mouse 6-hour PK properties as compared to hinokitiol”.

Regarding `CCc1cccc(C)c(=O)c1O` [Ex. 27, 7-ethyl-2-hydroxy-3-methylcyclohepta-2,4,6-trien-1-one], the exposure AUC(0-t) was 500 to 1500 ng·h/mL, the highest concentration (Cmax) lay in the range of 500 to 1500 ng/mL, the half-life lay in the range of 1.25 to 4.99 h and the “mouse 6-hour PK properties as compared to hinokitiol” value is “one or more improved mouse 6-hour PK properties as compared to hinokitiol”.

In the case of `O=c1c(O)cc(C2CC2)ccc1F` [Ex. 34, 4-cyclopropyl-7-fluoro-2-hydroxycyclohepta-2,4,6-trien-1-one], the AUC(0-t) was above 20000 ng·h/mL, the Cmax was in the range of 5000 to 20000 ng/mL, the half-life lay within 1.25 to 4.99 h and the “mouse 6-hour PK properties as compared to hinokitiol” value is “one or more improved mouse 6-hour PK properties as compared to hinokitiol”.

For `O=c1ccccc(OC2CC3(CC3)C2)c1O` [Ex. 82, 2-hydroxy-3-(spiro[2.3]hexan-5-yloxy)cyclohepta-2,4,6-trien-1-one], the exposure AUC(0-t) fell in the range of 500 to 1500 ng·h/mL, the Cmax is below 499 ng/mL, the half-life is below 1.25 h and the “mouse 6-hour PK properties as compared to hinokitiol” value is given as “one or more improved mouse 6-hour PK properties as compared to hinokitiol”.

For the compound `O=c1ccccc(C2CCOCC2)c1O` [Ex. 8, 2-hydroxy-3-(tetrahydro-211-pyran-4-yl)cyclohepta-2,4,6-trien-1-one], the AUC(0-t) was 500 to 1500 ng·h/mL, the Cmax was in the range of 500 to 1500 ng/mL, the half-life was 1.25 to 4.99 h and the “mouse 6-hour PK properties as compared to hinokitiol” value is on record as “one or more improved mouse 6-hour PK properties as compared to hinokitiol”.

In the case of `O=c1cccc(C2CC3CCC(C2)O3)cc1O` (centres unmarked) [Ex. 6, 4-(8-oxabicyclo[3.2.1]octan-3-yl)-2-hydroxycyclohepta-2,4,6-trien-1-one], the AUC(0-t) lay in the range of 500 to 1500 ng·h/mL, the maximum concentration (Cmax) lay within 500 to 1500 ng/mL, the half-life is 1.25 to 4.99 h and the “mouse 6-hour PK properties as compared to hinokitiol” value is reported as “one or more improved mouse 6-hour PK properties as compared to hinokitiol”.

The nature of a further series: Ligand facilitated Fe(III) efflux from liposomes. It is filed as biochemical. Also noted: unit not given here. Particulars: efflux rate k at 10 μM ligand concentration; ferrozine absorbance 562 nm, 120 min kinetic read. As to the method: Assay 1: Ligand Facilitated Fe(III) Efflux from Liposomes
Preparation of POPC (1 palmitoyl-2-oleoyl-sn-glycero-3 phosphocholine): Cholesterol Liposomes
A 1M buffer solution of MES and Tris was prepared by dissolving 121.14 grams of Tris base and 213.25 grams of MES hydrate in 500 mL of MilliQ water and adjusted to pH7.0 using an […] HCl solution before bringing the total volume of the solution to 1 L. A 500 mM solution of FeCl3 was prepared by dissolving 0.811 grams of anhydrous FeCl3 in 10 mL of a 0.1M H2SO4 aqueous solution. Inside buffer is prepared in a 50 mL falcon tube, which was added with 25 mL of MilliQ water, 1.61 g of sodium citrate, 1.5 mL of the above FeCl3 solution, and 2.5 mL of the 1M MES/Tris HCl buffer (pH=7.0), and finally additional MilliQ H2O to bring to a 50 mL final volume.
Lipid solution is prepared by dissolving 206.9 mg of POPC (1-palmitoyl-2-oleoyl-sn-glycero-3-phosphocholine) and 8.6 mg of cholesterol in 10 mL of ethanol.
The lipids solution and the inside buffer solution are independently loaded into 10 mL luer lock syringes for loading into a virgin cartridge on a Precision Nanosystems NanoAssembler to prepare unilamaller liposomes with the following parameters: 7.5 mL total volume, 1.5:1 mixing ratio of inside buffer:lipids solution, 8 mL/min flow rate, ambient temperature, 0.35 mL start waste, and 0.05 mL of end waste. 7.5 mL of liposomes is harvested for purification on a 6-inch long, 1-inch diameter Sephadex G-50 column wetted in 600 mM sodium ascorbate and 50 mM MES/Tris HCl pH 7.0 buffer. This buffer also serves as the column running buffer. The crude liposome solution is carefully loaded with minimal volume of running buffer above the top of the Sphadex, allowed to enter the matrix, and the column is run with the continued addition of running buffer. The eluting liposomes, observed as a milky and turbid solution, are collected until free iron begins to elute (observed as a deep purple color) and the fractions are pooled for phosphorus quantitation.
Determination of Phosphorus Content:
Phosphorus content of eluted liposomes was determined by the process outlined below. 10 μL of liposome elution and a running buffer blank are added to a 5 mL glass vial containing 450 μL of a 8.9 M aqueous H2SO4 solution, the mixture is heated to 225° C. for 25 minutes in an aluminum heat block to hydrolyze POPC and cooled for 5 minutes. 200 μL of a 30% hydrogen peroxide aqueous solution is added to each vial and heated to 225° C. for 25 minutes. After cooling, the phosphorus content was determined using an Abcam Phosphate Assay kit, with buffer subtracted phosphorus levels determined against a standard curve of phosphate included in the kit. Liposomes were diluted to 1 mM phosphate in Running Buffer for use in assays after accounting for dilutions made during phospholipid digestion.
Determination of the Iron Transporting Rate Constant of the Ligands:
Determination of the rate at which a small molecule ligand liberates (transport) Ferric iron from liposomes is performed in clear bottom black 384-well plates on a Spectramax i3x set to read the absorbance at 562 nm in the kinetic mode every 60 seconds for 120 minutes. 1 μL of serially diluted DMSO stock solution of a small molecule ligand is added to wells in triplicate to give the final concentrations of 40, 20, 10, 5, 2.5, and 1.25 uM of the ligand at 80 μL final volume, followed by addition of 1 μL of 100 mM Ferrozine in water to give a final concentration of 1 mM ferrozine. 78 μL of liposomes diluted to 1 mM phosphorus in running buffer is added to wells as quickly as possible (using a digital repeater multichannel pipette) with the kinetic read initiated as rapidly as possible after addition of liposomes to all wells. Typically, eight compounds at six concentrations are tested in triplicate simultaneously. […]
In the case of `O=c1ccc(C(CO)Cc2ccccc2)ccc1O` (centres unmarked), the “Liposome Fe transport kefflux at 10 μM” value is 0.1-5.

For the compound `O=c1cccc(F)cc1O`, the “Liposome Fe transport kefflux at 10 μM” value was 0.1-5.

Turning to `O=c1c(O)ccc(OC2CCCC2)cc1F`, the “Liposome Fe transport kefflux at 10 μM” value is given as 5-7.5.

Take `O=c1ccc(F)cc(C2CCCCO2)c1O` (centres unmarked): the “Liposome Fe transport kefflux at 10 μM” value is 0.1-5.

As for `O=c1c(F)cccc(C2CC2)c1O`, the “Liposome Fe transport kefflux at 10 μM” value is given as 7.5-10.

Turning to `Cc1cccc(C2CCCCO2)c(O)c1=O` (centres unmarked), the “Liposome Fe transport kefflux at 10 μM” value is reported as “<.1”.

For the compound `O=c1c(O)ccc(C2CC2)cc1F`, the “Liposome Fe transport kefflux at 10 μM” value is on record as 10-25.

For the compound `O=c1ccc(F)cc(C2CCOCC2)c1O`, the “Liposome Fe transport kefflux at 10 μM” value is 7.5-10.

Turning to `CC(C)c1ccc(F)cc(O)c1=O`, the “Liposome Fe transport kefflux at 10 μM” value is listed as 0.1-5.

Consider `O=c1c(F)cccc(OC2CC2)c1O`, for which the “Liposome Fe transport kefflux at 10 μM” value was 0.1-5.

On to `O=c1c(F)cccc(OC2CC3(CC3)C2)c1O`, for which the “Liposome Fe transport kefflux at 10 μM” value is on record as 0.1-5.

Take `Cc1cc(Cl)ccc(=O)c1O`: the “Liposome Fe transport kefflux at 10 μM” value is recorded as 5-7.5.

Take `Cc1cc(F)ccc(=O)c1O`: the “Liposome Fe transport kefflux at 10 μM” value is on record as 5-7.5.

Regarding `CC(C)c1cccc(=O)c(S)c1`, the “Liposome Fe transport kefflux at 10 μM” value is reported as 0.1-5.

For `CC(C)c1cc(F)ccc(=O)c1O`, the “Liposome Fe transport kefflux at 10 μM” value is 0.1-5.

As for `C[C@H](Oc1ccccc(=O)c1O)C1CC1` (stereo in doubt), the “Liposome Fe transport kefflux at 10 μM” value is recorded as 5-7.5.

With `C[C@@H]1CCC(c2ccccc(=O)c2O)O1` (mixture of isomers), the “Liposome Fe transport kefflux at 10 μM” value is on record as 5-7.5.

Turning to `O=c1cccc(OC2CC3(CC3)C2)cc1O`, the “Liposome Fe transport kefflux at 10 μM” value is on record as 5-7.5.

Take `O=c1ccccc(CC2COC2)c1O`: the “Liposome Fe transport kefflux at 10 μM” value was below 0.1.

On to `O=c1ccccc(OCC2CCC2)c1O`, for which the “Liposome Fe transport kefflux at 10 μM” value is 5-7.5.

For the compound `O=c1cccc(OC2CCC2)cc1O`, the “Liposome Fe transport kefflux at 10 μM” value is 0.1-5.

For the compound `CC1(C)CCC(c2ccc(O)c(=O)cc2)C1` (centres unmarked), the “Liposome Fe transport kefflux at 10 μM” value is 0.1-5.

Consider `O=c1c(F)cccc(C2CCCCO2)c1O` (centres unmarked), for which the “Liposome Fe transport kefflux at 10 μM” value is recorded as 5-7.5.

Take `O=c1cccc2c(c1O)OCCC2`: the “Liposome Fe transport kefflux at 10 μM” value is on record as 5-7.5.

With `O=c1ccc(F)ccc1O`, the “Liposome Fe transport kefflux at 10 μM” value is 7.5-10.

`CC(C)c1cccc(S)c(=O)c1`: the “Liposome Fe transport kefflux at 10 μM” value is listed as 0.1-5.

Take `O=c1ccccc(OC2CCCC2)c1O`: the “Liposome Fe transport kefflux at 10 μM” value is 7.5-10.

Take `O=c1ccccc(C2CC3CC3C2)c1[O-].[Na+]` (centres unmarked): the “Liposome Fe transport kefflux at 10 μM” value is given as 0.1-5.

As to `O=c1cccc(O[C@H]2CCOC2)cc1O` (stereo in doubt), the “Liposome Fe transport kefflux at 10 μM” value is 5-7.5.

In the case of `C[C@@H](Oc1ccccc(=O)c1O)C1CC1` (stereo in doubt), the “Liposome Fe transport kefflux at 10 μM” value is 5-7.5.

Turning to `O=c1cccc(C2CCC3(CC2)CC3)cc1O`, the “Liposome Fe transport kefflux at 10 μM” value is listed as 0.1-5.

For `O=c1ccc(OC2CCCC2)ccc1O`, the “Liposome Fe transport kefflux at 10 μM” value is given as 5-7.5.

On to `O=c1ccc(F)cc(C2CCCO2)c1O` (centres unmarked), for which the “Liposome Fe transport kefflux at 10 μM” value is 5-7.5.

As to `CC1(c2ccc(O)c(=O)cc2)CC1`, the “Liposome Fe transport kefflux at 10 μM” value is 0.1-5.

Take `COC1CCCC1c1ccccc(=O)c1O` (centres unmarked): the “Liposome Fe transport kefflux at 10 μM” value was 5-7.5.

With `CC1(c2ccc(O)c(=O)c(F)c2)CC1`, the “Liposome Fe transport kefflux at 10 μM” value was 5-7.5.

Turning to `CC1CCC(c2ccccc(=O)c2O)O1` (racemic), the “Liposome Fe transport kefflux at 10 μM” value is 5-7.5.

Take `CCc1ccc(F)c(=O)c(O)c1`: the “Liposome Fe transport kefflux at 10 μM” value is on record as 0.1-5.

As to `O=c1ccc(OC2CC3(CC3)C2)ccc1O`, the “Liposome Fe transport kefflux at 10 μM” value is 0.1-5.

Take `COc1ccc(O)c(=O)cc1`: the “Liposome Fe transport kefflux at 10 μM” value is listed as 5-7.5.

As to `O=c1cccc(C2CC3CC3C2)cc1O` (centres unmarked), the “Liposome Fe transport kefflux at 10 μM” value is 0.1-5.

Take `Cc1cccc(C2CCCO2)c(O)c1=O` (centres unmarked): the “Liposome Fe transport kefflux at 10 μM” value is recorded as 10-25.

Regarding `Cc1coc2c(O)c(=O)cccc12`, the “Liposome Fe transport kefflux at 10 μM” value is recorded as 7.5-10.

As to `O=c1c(F)cccc(OC2CCC2)c1O`, the “Liposome Fe transport kefflux at 10 μM” value is 10-25.

With `O=c1ccc(F)cc(OC2CCC2)c1O`, the “Liposome Fe transport kefflux at 10 μM” value is reported as 0.1-5.

On to `O=c1c(F)cccc(OC2CCCC2)c1O`, for which the “Liposome Fe transport kefflux at 10 μM” value was 7.5-10.

Values taken from patent US20230406803A1, “TROPOLONE DERIVATIVES AND TAUTOMERS THEREOF FOR IRON REGULATION IN ANIMALS” (Kinesid Therapeutics, Inc, priority 2020, published 2023).
